Source: BindingDB's records for doi:10.1016/j.bmcl.2005.03.024 (Johnson & Johnson Pharmaceutical, 2005)

Target: Cyclin-dependent kinase/G2/mitotic-specific cyclin- 1 (Homo sapiens, UniProt P06493)
Experiment: Kinase Inhibition Assay
Description: The enzyme was assayed with a biotinylated peptide substrate and test compounds in the presence of 10 uM ATP/[gamma-33P]ATP in a streptavidin coated FlashPlate (Perkin-Elmer, Boston, MA). Inhibition of the enzymatic activity due to the compound was measured by observing a reduced amount of 33P-gamma-ATP incorporated into the immobilized peptide relative to untreated controls. Linear regression analysis of the percent of inhibition by the test compound was used to calculate IC50 values.

Cyclin-dependent kinase/G2/mitotic-specific cyclin- 1, sequence (P06493 whole entry): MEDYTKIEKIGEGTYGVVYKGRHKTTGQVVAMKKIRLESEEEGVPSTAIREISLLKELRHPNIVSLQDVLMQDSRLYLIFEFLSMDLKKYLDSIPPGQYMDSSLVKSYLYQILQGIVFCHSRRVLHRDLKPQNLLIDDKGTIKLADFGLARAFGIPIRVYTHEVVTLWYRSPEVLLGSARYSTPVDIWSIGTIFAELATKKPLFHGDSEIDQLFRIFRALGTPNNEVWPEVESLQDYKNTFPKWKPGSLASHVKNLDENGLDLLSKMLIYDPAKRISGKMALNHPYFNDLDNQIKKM
Cyclin-dependent kinase/G2/mitotic-specific cyclin- 1, sequence (P14635 whole entry, further chain): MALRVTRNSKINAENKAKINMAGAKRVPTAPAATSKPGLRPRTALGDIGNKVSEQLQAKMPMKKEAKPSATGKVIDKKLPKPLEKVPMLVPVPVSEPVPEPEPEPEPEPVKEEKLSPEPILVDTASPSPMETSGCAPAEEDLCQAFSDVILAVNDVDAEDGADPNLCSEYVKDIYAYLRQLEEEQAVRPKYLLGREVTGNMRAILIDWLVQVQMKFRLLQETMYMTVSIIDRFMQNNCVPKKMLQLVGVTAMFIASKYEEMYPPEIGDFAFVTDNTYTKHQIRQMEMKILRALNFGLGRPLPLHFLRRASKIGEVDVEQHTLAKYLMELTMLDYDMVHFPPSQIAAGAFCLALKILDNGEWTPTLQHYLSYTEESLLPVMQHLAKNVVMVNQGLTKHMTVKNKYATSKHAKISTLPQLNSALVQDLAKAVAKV

Nc1ccc(C(=O)c2ccco2)c(N)n1 [3-(furan-2-ylcarbonyl)pyridine-2,6-diamine] was tested, and the IC50 was over 100 µM.

Nc1ccc(C(=O)c2cccs2)c(N)n1 [3-(thiophen-2-ylcarbonyl)pyridine-2,6-diamine] showed an IC50 of over 100 µM.

Nc1nc(Nc2ccc(S(=O)(=O)N(Cc3ccccc3)Cc3ccccc3)cc2)ccc1C(=O)c1c(F)cccc1F [4-({6-amino-5-[(2,6-difluorophenyl)carbonyl]pyridin-2-yl}amino)-N,N-dibenzylbenzene-1-sulfonamide] showed an IC50 of over 10 µM.

Work on CCN(CC)S(=O)(=O)c1ccc(Nc2ccc(C(=O)c3ccccc3)c(N)n2)cc1 [4-[(6-amino-5-benzoylpyridin-2-yl)amino]-N,N-diethylbenzene-1-sulfonamide] yielded an IC50 of over 100 µM.

Molecule CCN(CC)S(=O)(=O)c1ccc(Nc2ccc(C(=O)c3ccco3)c(N)n2)cc1 [4-{[6-amino-5-(furan-2-ylcarbonyl)pyridin-2-yl]amino}-N,N-diethylbenzene-1-sulfonamide] has an IC50 of over 100 µM.

For Nc1nc(Nc2ccccc2[N+](=O)[O-])ccc1C(=O)c1c(F)cccc1F [5-[(2,6-difluorophenyl)carbonyl]-2-N-(2-nitrophenyl)pyridine-2,6-diamine], the IC50 (pH 8, 30 °C) was over 10 µM.

For CC(=O)Nc1ccccc1Nc1ccc(C(=O)c2c(F)cccc2F)c(N)n1 [N-[2-({6-amino-5-[(2,6-difluorophenyl)carbonyl]pyridin-2-yl}amino)phenyl]acetamide], the IC50 (pH 8, 30 °C) was over 100 µM.

In the case of Nc1nc(Nc2ccccc2NC(=O)c2ccccc2)ccc1C(=O)c1c(F)cccc1F [N-[2-({6-amino-5-[(2,6-difluorophenyl)carbonyl]pyridin-2-yl}amino)phenyl]benzamide], the IC50 (pH 8, 30 °C) is reported as over 100 µM.

Molecule Nc1nc(Nc2ccccc2NS(=O)(=O)c2ccccc2)ccc1C(=O)c1c(F)cccc1F [N-[2-({6-amino-5-[(2,6-difluorophenyl)carbonyl]pyridin-2-yl}amino)phenyl]benzenesulfonamide] has an IC50 (pH 8, 30 °C) of over 100 µM.
